Laboratory results: US11739101B2, “Bifunctional degraders of hematopoietic progenitor kinase and therapeutic uses thereof” (Nurix Therapeutics, Inc., priority 2020, dated 2023)

Each compound was assayed against T1, HPK1 (Homo sapiens, UniProt Q92918) (assay: HPK1 Cellular HiBiT Degradation Assay). Conditions: HiBiT-tagged HPK1 Jurkat cells, 24 hours, 10 uM to 0.1 nM; Dmax = 100 minus lowest % HPK1 remaining vs DMSO vehicle.
T1 construct: A HiBiT tag was introduced by CRISPR on the N terminus of HPK1 in Jurkat cells; host or cells: Jurkat (ATCC TIB-152), monoclonal CRISPR HiBiT knock-in line
Assay type: cell-based
How it was run: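 Dmax is derived from four-parameter curves of % HPK1 remaining, as 100 minus the lowest value, normalized to DMSO-treated cells with parental Jurkat background subtracted. HiBiT-HPK1 knock-in Jurkat cells got compound for 24 hours (final 10 uM to 0.1 nM, 11 points) before lytic HiBiT luminescence. Cytotoxicity was checked on parallel CellTiter-Glo plates.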

T1 sequence (Q92918 whole entry): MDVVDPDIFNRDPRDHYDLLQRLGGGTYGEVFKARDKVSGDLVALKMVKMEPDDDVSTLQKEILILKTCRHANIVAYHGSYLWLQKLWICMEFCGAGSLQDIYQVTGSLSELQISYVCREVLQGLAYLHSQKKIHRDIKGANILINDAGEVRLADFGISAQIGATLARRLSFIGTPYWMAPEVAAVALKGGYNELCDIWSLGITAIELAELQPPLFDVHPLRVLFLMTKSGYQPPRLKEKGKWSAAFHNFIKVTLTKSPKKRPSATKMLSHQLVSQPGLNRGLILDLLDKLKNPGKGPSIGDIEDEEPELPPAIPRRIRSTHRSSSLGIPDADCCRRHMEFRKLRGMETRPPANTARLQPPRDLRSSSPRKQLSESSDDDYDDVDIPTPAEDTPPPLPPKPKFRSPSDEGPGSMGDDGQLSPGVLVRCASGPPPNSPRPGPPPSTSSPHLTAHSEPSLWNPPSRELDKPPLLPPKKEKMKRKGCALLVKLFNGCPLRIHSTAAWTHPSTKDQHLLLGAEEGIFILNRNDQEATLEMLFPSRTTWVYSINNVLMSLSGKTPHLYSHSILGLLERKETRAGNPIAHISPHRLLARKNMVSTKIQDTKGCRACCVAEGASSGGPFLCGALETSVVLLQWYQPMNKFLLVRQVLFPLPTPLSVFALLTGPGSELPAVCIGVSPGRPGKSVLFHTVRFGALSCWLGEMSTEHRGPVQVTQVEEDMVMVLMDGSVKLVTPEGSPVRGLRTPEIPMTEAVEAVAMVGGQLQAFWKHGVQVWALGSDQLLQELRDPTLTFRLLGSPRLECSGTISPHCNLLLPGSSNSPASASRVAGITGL

Compound	Dmax [%]
Cc1cc(F)c(Nc2nc(-c3ccc4c(c3)N([C@H]3C[C@@H](N5CCCCC5)C3)C(=O)C43CCN(C(=O)C4CCN(C(=O)C5CCN(c6cccc7c6C(=O)N(C6CCC(=O)NC6=O)C7=O)CC5)C4)CC3)cc3ncn(C(C)C)c23)cc1C(=O)NC(C)C (mixture of isomers) [Example 25, 5-[(6-{1′-[1-(1-{2-[(3RS)-2,6-dioxopiperidin-3-yl]-1,3-dioxo-2,3-dihydro-1H-isoindol-4-yl}piperidine-4-carbonyl)pyrrolidine-3-carbonyl]-2-oxo-1-[(1s,3s)-3-(piperidin-1-yl)cyclobutyl]-1,2-dihydrospiro[indole-3,4′-piperidin]-6-yl}-3-(propan-2-yl)-3H-imidazo[4,5-c]pyridin-4-yl)amino]-4-fluoro-2-methyl-N-(propan-2-yl)benzamide]	45 to 65
Cc1cc(F)c(Nc2nc(-c3ccc4c(c3)N([C@H]3C[C@@H](N5CCCCC5)C3)C(=O)C43CCN(C(=O)C4CN(C(=O)CC5CCN(c6cccc7c6C(=O)N(C6CCC(=O)NC6=O)C7=O)CC5)C4)CC3)cc3ncn(C(C)C)c23)cc1C(=O)NC(C)C (stereo partly drawn) [Example 34, 5-{[6-(1′-{1-[2-(1-{2-[2,6-dioxopiperidin-3-yl]-1,3-dioxo-2,3-dihydro-1H-isoindol-4-yl}piperidin-4-yl)acetyl]azetidine-3-carbonyl}-2-oxo-1-[(1s,3s)-3-(piperidin-1-yl)cyclobutyl]-1,2-dihydrospiro[indole-3,4′-piperidin]-6-yl)-3-(propan-2-yl)-3H-imidazo[4,5-c]pyridin-4-yl]amino}-4-fluoro-2-methyl-N-(propan-2-yl)benzamide]	< 45
Cc1cc(F)c(Nc2nc(-c3ccc4c(c3)N([C@H]3C[C@@H](N5CCCCC5)C3)C(=O)C43CCN(C(=O)CCN4CCC(CCCCC(=O)N[C@H](C(=O)N5C[C@H](O)C[C@H]5C(=O)N[C@@H](C)c5ccc(-c6scnc6C)cc5)C(C)(C)C)CC4)CC3)cc3ncn(C(C)C)c23)cc1C(=O)NC(C)C [Example 20, (2S,4R)-1-((S)-2-(5-(1-(3-(6-(4-((2-fluoro-5-(isopropylcarbamoyl)-4-methylphenyl)amino)-3-isopropyl-3H-imidazo[4,5-c]pyridin-6-yl)-2-oxo-1-((1s,3s)-3-(piperidin-1-yl)cyclobutyl)spiro[indoline-3,4′-piperidin]-1′-yl)-3-oxopropyl)piperidin-4-yl)pentanamido)-3,3-dimethylbutanoyl)-4-hydroxy-N—((S)-1-(4-(4-methylthiazol-5-yl)phenyl)ethyl)pyrrolidine-2-carboxamide]	< 45
Cc1cc(F)c(Nc2nc(-c3ccc4c(c3)N([C@H]3C[C@@H](N5CCCCC5)C3)C(=O)C43CCN(C(=O)c4ccc(C(=O)N5CCN(c6ccc7c(c6)C(=O)N(C6CCC(=O)NC6=O)C7=O)CC5)cc4Cl)CC3)cc3ncn(C(C)C)c23)cc1C(=O)NC(C)C (stereo partly drawn) [Example 71, 5-[(6-{1′-[2-chloro-4-(4-{2-[2,6-dioxopiperidin-3-yl]-1,3-dioxo-2,3-dihydro-1H-isoindol-5-yl}piperazine-1-carbonyl)benzoyl]-2-oxo-1-[(1s,3s)-3-(piperidin-1-yl)cyclobutyl]-1,2-dihydrospiro[indole-3,4′-piperidin]-6-yl}-3-(propan-2-yl)-3H-imidazo[4,5-c]pyridin-4-yl)amino]-4-fluoro-2-methyl-N-(propan-2-yl)benzamide]	> 65
Cc1cc(F)c(Nc2nc(-c3ccc4c(c3)N([C@H]3C[C@@H](N5CCCCC5)C3)C(=O)C43CCN(C(=O)[C@@H]4CCN(C(=O)C[C@H]5CC[C@H](Nc6cccc7c6C(=O)N(C6CCC(=O)NC6=O)C7=O)CC5)C4)CC3)cc3ncn(C(C)C)c23)cc1C(=O)NC(C)C (stereo partly drawn) [Example 82, 5-((6-(1′-((3R)-1-(2-((1R,4R)-4-((2-(2,6-dioxopiperidin-3-yl)-1,3-dioxoisoindolin-4-yl)amino)cyclohexyl)acetyl)pyrrolidine-3-carbonyl)-2-oxo-1-((1s,3s)-3-(piperidin-1-yl)cyclobutyl)spiro[indoline-3,4′-piperidin]-6-yl)-3-isopropyl-3H-imidazo[4,5-c]pyridin-4-yl)amino)-4-fluoro-N-isopropyl-2-methylbenzamide]	45 to 65
Cc1cc(F)c(Nc2nc(-c3ccc4c(c3)N([C@H]3C[C@@H](N5CCCCC5)C3)C(=O)C43CCN(C(=O)C4CCN(C(=O)N5CCC(Nc6cccc7c6C(=O)N(C6CCC(=O)NC6=O)C7=O)CC5)CC4)CC3)cc3ncn(C(C)C)c23)cc1C(=O)NC(C)C (stereo partly drawn) [Example 68, 5-{[6-(1′-{1-[4-({2-[2,6-dioxopiperidin-3-yl]-1,3-dioxo-2,3-dihydro-1H-isoindol-4-yl}amino)piperidine-1-carbonyl]piperidine-4-carbonyl}-2-oxo-1-[(1s,3s)-3-(piperidin-1-yl)cyclobutyl]-1,2-dihydrospiro[indole-3,4′-piperidin]-6-yl)-3-(propan-2-yl)-3H-imidazo[4,5-c]pyridin-4-yl]amino}-4-fluoro-2-methyl-N-(propan-2-yl)benzamide]	45 to 65
Cc1cc(F)c(Nc2nc(-c3ccc4c(c3)N([C@H]3C[C@@H](N5CCCCC5)C3)C(=O)C43CCN(C(=O)CCCCCCCCCOc4cc(-c5scnc5C)ccc4CNC(=O)[C@@H]4C[C@@H](O)CN4C(=O)[C@@H](NC(=O)C4(F)CC4)C(C)(C)C)CC3)cc3ncn(C(C)C)c23)cc1C(=O)NC(C)C [Example 6, (2S,4R)—N-(2-((10-(6-(4-((2-fluoro-5-(isopropylcarbamoyl)-4-methylphenyl)amino)-3-isopropyl-3H-imidazo[4,5-c]pyridin-6-yl)-2-oxo-1-((1s,3s)-3-(piperidin-1-yl)cyclobutyl)spiro[indoline-3,4′-piperidin]-1′-yl)-10-oxodecyl)oxy)-4-(4-methylthiazol-5-yl)benzyl)-1-((S)-2-(1-fluorocyclopropane-1-carboxamido)-3,3-dimethylbutanoyl)-4-hydroxypyrrolidine-2-carboxamide]	< 45
Cc1cc(F)c(Nc2nc(-c3ccc4c(c3)N([C@H]3C[C@@H](N5CCCCC5)C3)C(=O)C43CCN(C(=O)CN4CCC(c5ccc(C(=O)NCCNc6cccc7c6C(=O)N(C6CCC(=O)NC6=O)C7=O)cc5)CC4)CC3)cc3ncn(C(C)C)c23)cc1C(=O)NC(C)C (stereo partly drawn) [Example 90, 5-[(6-{1′-[2-(4-{4-[(2-{[2-(2,6-dioxopiperidin-3-yl)-1,3-dioxoisoindol-4-yl]amino}ethyl)carbamoyl]phenyl}piperidin-1-yl)acetyl]-2-oxo-1-[(1s,3s)-3-(piperidin-1-yl)cyclobutyl]spiro[indole-3,4′-piperidin]-6-yl}-3-isopropylimidazo[4,5-c]pyridin-4-yl)amino]-4-fluoro-N-isopropyl-2-methylbenzamide]	45 to 65
Cc1cc(F)c(Nc2nc(-c3ccc4c(c3)N([C@H]3C[C@@H](N5CCCCC5)C3)C(=O)C43CCN(C(=O)c4ccc(C(=O)N5CCC(c6cccc7c6C(=O)N([C@H]6CCC(=O)NC6=O)C7=O)CC5)cc4)CC3)cc3ncn(C(C)C)c23)cc1C(=O)NC(C)C [Example 75, 5-[(6-{1′-[4-(4-{2-[2,6-dioxopiperidin-3-yl]-1,3-dioxo-2,3-dihydro-1H-isoindol-4-yl}piperidine-1-carbonyl)benzoyl]-2-oxo-1-[(1s,3s)-3-(piperidin-1-yl)cyclobutyl]-1,2-dihydrospiro[indole-3,4′-piperidin]-6-yl}-3-(propan-2-yl)-3H-imidazo[4,5-c]pyridin-4-yl)amino]-4-fluoro-2-methyl-N-(propan-2-yl)benzamide]	< 45
